The source of these data is patent publication US11446298B2, “Pyrimidine derivatives” (Idorsia Pharmaceuticals Ltd, priority 2017, dated 2022).

Usually IC50 stands for the concentration that gives 50% inhibition.

What all share (type): cell-based
One test addresses T1, EP4 (Homo sapiens, UniProt P35408).
T1 construct: BT549 breast cancer cells, express high endogenous EP4 levels and very low EP2 levels; host or cells: BT549 breast cancer cells
Description: hEP4 cAMP Assay (BT549 breast cancer cells, HTRF cAMP, PGE2 6 nM). The note with it: antagonistic activity, PGE2 6 nM (EC80). A digest of the protocol: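 BT549 cells (endogenous EP4, very low EP2) in HBSS/20 mM HEPES/0.2% BSA/2 mM IBMX, pre-incubated 45 min RT with compound, then stimulated 30 min RT with PGE2 6 nM (EC80). cAMP read by HTRF competitive immunoassay (665/620 nm), converted via calibrator to % of DMSO control; IC50 from duplicate dose-response curves.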
In general terms: TR-FRET usually uses a lanthanide donor and a delayed reading to cut background.

The target of the next test is T2, EP2 (Homo sapiens, UniProt P43116).
T2 construct: SF295 glioblastoma cells express high endogenous EP2 and no EP4; host or cells: SF295 glioblastoma cells
T2 sequence (P43116 whole entry): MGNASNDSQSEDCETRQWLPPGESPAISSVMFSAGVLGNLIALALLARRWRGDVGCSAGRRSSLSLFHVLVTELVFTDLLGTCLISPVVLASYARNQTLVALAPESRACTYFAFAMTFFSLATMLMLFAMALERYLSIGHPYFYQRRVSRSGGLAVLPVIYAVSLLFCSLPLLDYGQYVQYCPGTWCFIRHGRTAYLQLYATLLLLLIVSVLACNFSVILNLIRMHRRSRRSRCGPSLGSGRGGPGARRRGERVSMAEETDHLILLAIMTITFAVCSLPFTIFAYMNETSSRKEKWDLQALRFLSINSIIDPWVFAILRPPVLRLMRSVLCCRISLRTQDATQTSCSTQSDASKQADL
Description: hEP2 cAMP Assay (SF295 glioblastoma cells, HTRF cAMP, PGE2 75 nM). The following applies: antagonistic activity, PGE2 75 nM (EC80). Put shortly: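 IC50 values derive from duplicate-point curves of percent cAMP relative to DMSO, read by HTRF (665/620 nm) against a cAMP calibrator. Compounds (30 μM to 0.01 nM ranges) were given 45 min at room temperature before 30 min with 75 nM PGE2, in EP2-only SF295 cells with 2 mM IBMX.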

For the next test, the target named is T3, PTGER4 (EP4) (Homo sapiens, UniProt P35408).
T3 construct: host or cells: HEK 293 (PathHunter, stably transfected)
T3 sequence (P35408 whole entry): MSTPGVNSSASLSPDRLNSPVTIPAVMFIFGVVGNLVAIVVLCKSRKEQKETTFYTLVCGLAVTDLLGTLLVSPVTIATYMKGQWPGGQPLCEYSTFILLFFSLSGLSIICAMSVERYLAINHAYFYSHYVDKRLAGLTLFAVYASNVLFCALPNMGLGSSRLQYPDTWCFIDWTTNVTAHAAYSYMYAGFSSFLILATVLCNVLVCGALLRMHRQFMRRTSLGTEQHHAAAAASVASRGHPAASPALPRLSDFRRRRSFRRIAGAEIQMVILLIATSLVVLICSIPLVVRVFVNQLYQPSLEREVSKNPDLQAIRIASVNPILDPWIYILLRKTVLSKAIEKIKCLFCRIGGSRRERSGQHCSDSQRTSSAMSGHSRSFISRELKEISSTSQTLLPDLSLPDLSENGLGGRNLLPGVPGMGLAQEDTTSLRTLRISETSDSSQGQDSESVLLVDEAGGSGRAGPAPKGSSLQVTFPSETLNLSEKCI
Nature of the test: hEP4 b-Arrestin Assay (PathHunter HEK 293 PTGER4 b-arrestin cells, PGE2 20 nM). The note with it: antagonistic activity, beta-arrestin assay, HEK 293 PTGER4 cells, PGE2 20 nM (EC80); read-out: hEP4 b-arr IC50. Put shortly:
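PathHunter HEK 293 EP4 b-arrestin enzyme-complementation cells preincubated 15 min at 37° C with compound (10 μM-2 nM or 1 μM-0.2 nM), then stimulated 120 min with 20 nM PGE2 (EC80). Chemiluminescence read; IC50 from duplicate % activity vs DMSO, one-site fit, averaged over repeats.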

For another test, the target named is T4, PTGER2 (EP2) (Homo sapiens, UniProt P43116).
T4 construct: host or cells: HEK 293 (PathHunter, stably transfected)
T4 sequence (P43116 whole entry): as the sequence (P43116 whole entry) above
Description: hEP2 b-Arrestin Assay (PathHunter HEK 293 PTGER2 b-arrestin cells, PGE2 5 μM). The note with it: antagonistic activity, beta-arrestin assay, HEK 293 PTGER2 cells, PGE2 5 μM (EC80); read-out: hEP2 b-arr IC50. Put shortly: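 PathHunter enzyme-fragment complementation in HEK 293 cells: compounds (10 μM-2 nM or 1 μM-0.2 nM) pre-incubated 15 min at 37 °C, then 5 μM PGE2 (EC80) for 120 min at 37 °C. Chemiluminescence read after 1 h detection; IC50 from duplicate dose-response fits, means of repeats.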

Each structure is given as a SMILES string.

T1 sequence (P35408 whole entry): as the sequence (P35408 whole entry) above

Regarding `CCSc1cc(-c2cc(NCCc3ccc(C)c4ccccc34)ncn2)ccc1C(=O)O` [Example 100, 2-Ethylsulfanyl-4-{6-[2-(4-methyl-naphthalen-1-yl)-ethylamino]-pyrimidin-4-yl}-benzoic acid], the IC50 at EP4 stood at 76 nM; at EP2, 206 nM; on PTGER4 (EP4) it was 206 nM; on PTGER2 (EP2), 133 nM.

Regarding `CCOc1cc(-c2cc(NCCc3c(OC)ccc4ccccc34)ncn2)ccc1CC(=O)O` [Example 160, (2-Ethoxy-4-{6-[2-(2-methoxy-naphthalen-1-yl)-ethylamino]-pyrimidin-4-yl}-phenyl)-acetic acid], the IC50 against EP4 was found to be 252 nM; against EP2, 79 nM; on PTGER4 (EP4) it was 667 nM; at PTGER2 (EP2), 24 nM.

Take `CCOc1cc(-c2cc(NCCc3ccc(Br)c4ccccc34)ncn2)ccc1C(=O)O` [Example 182, 4-{6-[2-(4-Bromo-naphthalen-1-yl)-ethylamino]-pyrimidin-4-yl}-2-ethoxy-benzoic acid]: the IC50 was found to be 182 nM at EP4, 209 nM against EP2, 193 nM at PTGER4 (EP4) and 142 nM at PTGER2 (EP2).

Turning to `CSc1cc(-c2cc(NCCc3ccc(Br)c4ccccc34)ncn2)ccc1C(=O)O` [Example 171, 4-{6-[2-(4-Bromo-naphthalen-1-yl)-ethylamino]-pyrimidin-4-yl}-2-methylsulfanyl-benzoic acid], the IC50 against EP4 stood at 130 nM; at EP2, 88 nM; at PTGER4 (EP4) it was 149 nM; at PTGER2 (EP2) it was 68 nM.

Take `COc1ccc2ccc(F)c(CCNc3cc(-c4cc(C(F)(F)F)c(C(=O)O)s4)ncn3)c2n1` [Example 151, 5-{6-[2-(7-Fluoro-2-methoxy-quinolin-8-yl)-ethylamino]-pyrimidin-4-yl}-3-trifluoromethyl-thiophene-2-carboxylic acid]: the IC50 at EP4 is 228 nM; against EP2, 214 nM; at PTGER4 (EP4), 478 nM; at PTGER2 (EP2), 414 nM.

Consider `CCOc1cc(-c2cc(NCCc3c(OC(C)C)ccc4ccccc34)ncn2)sc1C(=O)O` [Example 30, 3-Ethoxy-5-{6-[2-(2-isopropoxy-naphthalen-1-yl)-ethylamino]-pyrimidin-4-yl}-thiophene-2-carboxylic acid], for which the IC50 against EP4 was 61 nM; against EP2, 23 nM; at PTGER4 (EP4), 83 nM; at PTGER2 (EP2), 115 nM.

Regarding `Cn1ccc2c(CCNc3cc(-c4ccc(C(=O)O)c(OC5CCC5)c4)ncn3)cccc21` [Example 159, 2-Cyclobutoxy-4-{6-[2-(1-methyl-1H-indol-4-yl)-ethylamino]-pyrimidin-4-yl}-benzoic acid], the IC50 amounted to 1050 nM at EP4, 110 nM against EP2, 864 nM at PTGER4 (EP4) and 44 nM on PTGER2 (EP2).

On to `CCOc1cc(-c2cc(NCCc3ccc(C(F)F)c4ccccc34)ncn2)sc1C(=O)O` [Example 72, 5-{6-[2-(4-Difluoromethyl-naphthalen-1-yl)-ethylamino]-pyrimidin-4-yl}-3-ethoxy-thiophene-2-carboxylic acid], for which the IC50 at EP4 is 6 nM; against EP2, 50 nM; at PTGER4 (EP4) it was 8 nM; at PTGER2 (EP2), 50 nM.

Regarding `CCOc1cc(-c2cc(NCCc3c(OCC)ccc4ccccc34)ncn2)sc1C(=O)O` [Example 27, 3-Ethoxy-5-{6-[2-(2-ethoxy-naphthalen-1-yl)-ethylamino]-pyrimidin-4-yl}-thiophene-2-carboxylic acid], the IC50 against EP4 stood at 33 nM; at EP2 it was 2 nM; on PTGER4 (EP4), 53 nM; at PTGER2 (EP2), 3 nM.

As to `CCOc1cc(-c2cc(NCCc3c(F)ccc4ccccc34)ncn2)sc1C(=O)O` [Example 95, 3-Ethoxy-5-{6-[2-(2-fluoro-naphthalen-1-yl)-ethylamino]-pyrimidin-4-yl}-thiophene-2-carboxylic acid], the IC50 is 21 nM against EP4, 4 nM against EP2, 51 nM on PTGER4 (EP4) and 8 nM at PTGER2 (EP2).
